Source: ChEMBL document CHEMBL1201862, “PubChem BioAssay data set” (2004)
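Growth conditions: 96-well plates. Treatment: test compound, 48 hours, 5 concentrations. Analysis: linear interpolation between bracketing concentrations; unreached endpoints set to highest concentration. GI50 = concentration required for 50% inhibition of growth.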 Active and inactive are the calls of the source. Cut-off read from the data, not from the text of the source: active = GI50 up to about 1.1 µM and inactive = higher.

How the values were obtained:
Test in all cases: growth of human tumour cells (NCI), 48 h
786-0 = tested on: 786-0
A498 = tested on: A498
A549 = tested on: A549
ACHN = tested on: ACHN
BT-549 = tested on: BT-549
CAKI-1 = tested on: CAKI-1
COLO 205 = tested on: COLO 205
DU-145 = tested on: DU-145
EKVX = tested on: EKVX
HCC 2998 = tested on: HCC 2998
HCT-116 = tested on: HCT-116
HCT-15 = tested on: HCT-15
HL-60 = tested on: HL-60
HOP-62 = tested on: HOP-62
HT-29 = tested on: HT-29
Hs-578T = tested on: Hs-578T
IGROV-1 = tested on: IGROV-1
KM12 = tested on: KM12
LOX IMVI = tested on: LOX IMVI
M14 = tested on: M14
MCF7 = tested on: MCF7
MDA-MB-231 = tested on: MDA-MB-231
MDA-MB-435 = tested on: MDA-MB-435
MDA-N = tested on: MDA-N
MOLT-4 = tested on: MOLT-4
Malme-3M = tested on: Malme-3M
NCI-H226 = tested on: NCI-H226
NCI-H23 = tested on: NCI-H23
NCI-H460 = tested on: NCI-H460
NCI-H522 = tested on: NCI-H522
NCI/ADR-RES = tested on: NCI/ADR-RES
OVCAR-3 = tested on: OVCAR-3
OVCAR-4 = tested on: OVCAR-4
OVCAR-5 = tested on: OVCAR-5
OVCAR-8 = tested on: OVCAR-8
PC-3 = tested on: PC-3
RPMI-8226 = tested on: RPMI-8226
RXF 393 = tested on: RXF 393
SF-268 = tested on: SF-268
SF-295 = tested on: SF-295
SF-539 = tested on: SF-539
SK-MEL-28 = tested on: SK-MEL-28
SK-MEL-2 = tested on: SK-MEL-2
SK-MEL-5 = tested on: SK-MEL-5
SK-OV-3 = tested on: SK-OV-3
SN12C = tested on: SN12C
SNB-19 = tested on: SNB-19
SNB-75 = tested on: SNB-75
SR = tested on: SR
SW-620 = tested on: SW-620
T47D = tested on: T47D
TK-10 = tested on: TK-10
U-251 = tested on: U-251
UACC-257 = tested on: UACC-257
UACC-62 = tested on: UACC-62
UO-31 = tested on: UO-31
CCRF-CEM = tested on: CCRF-CEM
HOP-92 = tested on: HOP-92
K562 = tested on: K562

## c1csc(-c2ccc(-c3ccc(-c4cccs4)s3)s2)c1
786-0
  GI50: > 100 µM (inactive)
A498
  GI50: > 100 µM (inactive)
A549
  GI50: > 100 µM (inactive)
ACHN
  GI50: > 100 µM (inactive)
BT-549
  GI50: > 100 µM (inactive)
CAKI-1
  GI50: > 100 µM (inactive)
COLO 205
  GI50: > 100 µM (inactive)
DU-145
  GI50: > 100 µM (inactive)
EKVX
  GI50: > 100 µM (inactive)
HCC 2998
  GI50: > 100 µM (inactive)
HCT-116
  GI50: > 100 µM (inactive)
HCT-15
  GI50: > 100 µM
HL-60
  GI50: > 100 µM (inactive)
HOP-62
  GI50: > 100 µM (inactive)
HT-29
  GI50: > 100 µM (inactive)
Hs-578T
  GI50: > 100 µM (inactive)
IGROV-1
  GI50: > 100 µM (inactive)
KM12
  GI50: > 100 µM (inactive)
LOX IMVI
  GI50: > 100 µM (inactive)
M14
  GI50: > 100 µM (inactive)
MCF7
  GI50: > 100 µM (inactive)
MDA-MB-231
  GI50: > 100 µM (inactive)
MDA-MB-435
  GI50: > 100 µM (inactive)
MDA-N
  GI50: > 100 µM (inactive)
MOLT-4
  GI50: > 100 µM (inactive)
Malme-3M
  GI50: > 100 µM (inactive)
NCI-H226
  GI50: > 100 µM (inactive)
NCI-H23
  GI50: > 100 µM (inactive)
NCI-H460
  GI50: > 100 µM (inactive)
NCI-H522
  GI50: > 100 µM (inactive)
NCI/ADR-RES
  GI50: > 100 µM (inactive)
OVCAR-3
  GI50: > 100 µM (inactive)
OVCAR-4
  GI50: > 100 µM (inactive)
OVCAR-5
  GI50: > 100 µM (inactive)
OVCAR-8
  GI50: > 100 µM (inactive)
PC-3
  GI50: > 100 µM (inactive)
RPMI-8226
  GI50: > 100 µM (inactive)
RXF 393
  GI50: > 100 µM (inactive)
SF-268
  GI50: > 100 µM (inactive)
SF-295
  GI50: > 100 µM (inactive)
SF-539
  GI50: > 100 µM (inactive)
SK-MEL-28
  GI50: > 100 µM (inactive)
SK-MEL-2
  GI50: > 100 µM (inactive)
SK-MEL-5
  GI50: > 100 µM (inactive)
SK-OV-3
  GI50: > 100 µM (inactive)
SN12C
  GI50: > 100 µM (inactive)
SNB-19
  GI50: > 100 µM (inactive)
SNB-75
  GI50: > 100 µM (inactive)
SR
  GI50: > 100 µM (inactive)
SW-620
  GI50: > 100 µM (inactive)
T47D
  GI50: > 100 µM (inactive)
TK-10
  GI50: > 100 µM (inactive)
U-251
  GI50: > 100 µM (inactive)
UACC-257
  GI50: > 100 µM (inactive)
UACC-62
  GI50: > 100 µM (inactive)
UO-31
  GI50: > 100 µM (inactive)

## C/C(=N\NC(=S)Nc1ccc(Cl)cc1)c1nc2cccnc2[nH]1
786-0
  GI50: 2.17 µM (inactive)
A498
  GI50: 6.21 µM (inactive)
A549
  GI50: 2.38 µM (inactive)
ACHN
  GI50: 0.822 µM (active)
BT-549
  GI50: 1.76 µM (inactive)
CAKI-1
  GI50: 1.53 µM (inactive)
CCRF-CEM
  GI50: 0.492 µM (active)
COLO 205
  GI50: 4.07 µM (inactive)
DU-145
  GI50: 1.97 µM (inactive)
EKVX
  GI50: 0.608 µM (active)
HCC 2998
  GI50: 1.3 µM (inactive)
HCT-116
  GI50: 1.53 µM (inactive)
HCT-15
  GI50: 2.39 µM
HL-60
  GI50: 0.818 µM (active)
HOP-62
  GI50: 1.52 µM (inactive)
HOP-92
  GI50: 1.27 µM (inactive)
HT-29
  GI50: 2.56 µM (inactive)
Hs-578T
  GI50: 15.1 µM (inactive)
IGROV-1
  GI50: 3.08 µM (inactive)
K562
  GI50: 3.33 µM (inactive)
KM12
  GI50: 1.23 µM (inactive)
LOX IMVI
  GI50: 1.23 µM (inactive)
M14
  GI50: 1.48 µM (inactive)
MCF7
  GI50: 2.69 µM (inactive)
MDA-MB-231
  GI50: 6.04 µM (inactive)
MDA-MB-435
  GI50: 3.44 µM (inactive)
MDA-N
  GI50: 5.13 µM (inactive)
MOLT-4
  GI50: 0.687 µM (active)
Malme-3M
  GI50: 3.35 µM (inactive)
NCI-H226
  GI50: 1.77 µM (inactive)
NCI-H23
  GI50: 1.89 µM (inactive)
NCI-H460
  GI50: 0.665 µM (active)
NCI-H522
  GI50: 6.89 µM (inactive)
NCI/ADR-RES
  GI50: 2.65 µM (inactive)
OVCAR-3
  GI50: 0.352 µM (active)
OVCAR-4
  GI50: 5.64 µM (inactive)
OVCAR-5
  GI50: 2.29 µM (inactive)
OVCAR-8
  GI50: 1.45 µM (inactive)
PC-3
  GI50: 1.39 µM (inactive)
RPMI-8226
  GI50: 3.27 µM (inactive)
SF-268
  GI50: 0.438 µM (active)
SF-295
  GI50: 2.15 µM (inactive)
SF-539
  GI50: 0.938 µM (active)
SK-MEL-28
  GI50: 1.51 µM (inactive)
SK-MEL-2
  GI50: 10.5 µM (inactive)
SK-MEL-5
  GI50: 1.67 µM (inactive)
SK-OV-3
  GI50: 4.31 µM (inactive)
SN12C
  GI50: 2.81 µM (inactive)
SNB-19
  GI50: 2.08 µM (inactive)
SNB-75
  GI50: 4.91 µM (inactive)
SR
  GI50: 0.92 µM (active)
SW-620
  GI50: 4.93 µM (inactive)
T47D
  GI50: 3.37 µM (inactive)
TK-10
  GI50: 0.309 µM (active)
U-251
  GI50: 0.773 µM (active)
UACC-257
  GI50: 2.28 µM (inactive)
UACC-62
  GI50: 1.87 µM (inactive)
UO-31
  GI50: 0.713 µM (active)
